# Experimental data from patent US20230067378A1, “COMPOSITIONS AND METHODS FOR THE TREATMENT OF ESTROGEN-DEPENDENT DISORDERS” (ObsEva S.A., priority 2018, published 2023).
# Test system: pre-menopausal women
# Test: uterine bleeding pattern, clinical trial of compound (VI) 200 mg per day (choline salt) with add-back therapy (1.0 mg E2, 0.5 mg norethindrone acetate)
# Assay type: in vivo, human
# Method: The experiments described in this example were conducted as part of a single-center, open-label, randomized, parallel-group clinical trial in 32 pre-menopausal women. Following screening assessments, and during the second half of the menstrual cycle, women received norethindrone (5 mg, three-times daily for 10 days) to synchronize menstrual cycles. After menstrual cycle synchronization, subjects were randomized with a 1:1 ratio to one of two treatment arms: (i) a cohort receiving once-daily administration of compound (VI) (200 mg per day, administered in the form of a choline salt) with concurrent onset of add-back therapy administration for 10 weeks (“Concurrent-ABT”), or (ii) a cohort receiving pre-treatment with compound (VI) (200 mg per day, administered in the form of a choline salt) for 4 weeks followed by combined daily administration of compound (VI) and add-back therapy (“Delayed-ABT”). The add-back therapy used in these experiments contained 1.0 mg of E2 and 0.5 mg of norethindrone acetate, and was administered to subjects once daily.
# The main treatment outcomes and endpoints measured during these experiments included (i) a qualitative assessment of uterine blood loss, which was recorded on a daily basis throughout the study by characterizing each subject's bleeding pattern using one of the following four categories: “no bleeding,” “spotting” (light staining, dark blood, no sanitary protection needed or only panty liner), “bleeding” (1-4 completely soiled maxi sanitary towels or 1-8 soiled tampons or equivalent combination of the two), or “heavy bleeding” (>4 completely soiled maxi sanitary towels or >8 soiled tampons or equivalent combination of the two); (ii) a bi-weekly assessment of each subject's circulating E2 concentration; (iii) a bi-weekly assessment of each subject's circulating progesterone concentration (measured using a validated commercial chemiluminescence immunoassay method (Elecsys Progesterone III, Roche, Burgess Hill, UK)); (iv) the pharmacokinetic profile of compound (VI) and the add-back therapy; and (v) adverse events.
# [1] = Concurrent-ABT group, first half of treatment
# [2] = Concurrent-ABT group, second half of the treatment period
# [3] = Days 1-14, treatment A (Concurrent-ABT), N=16
# [4] = Days 1-14, treatment B (Delayed-ABT), N=16
# [5] = Days 15-28, Overall (A+B), N=32
# [6] = Days 15-28, treatment A (Concurrent-ABT), N=16
# [7] = Days 15-28, treatment B (Delayed-ABT), N=16
# [8] = Days 29-42, Overall (A+B), N=29
# [9] = Days 29-42, treatment A (Concurrent-ABT), N=14
compound,measurement,setting,value
"COc1cc(F)c(-n2c(=O)[nH]c3csc(C(=O)O)c3c2=O)cc1OCc1c(OC)ccc(F)c1F [Compound (VI), 3-[2-fluoro-5-(2,3-difluoro-6-methoxybenzyloxy)4-methoxyphenyl]-2,4-dioxo-1,2,3,4-tetrahydrothieno [3,4d]pyrimidine-5-carboxylic acid]",women who had reached amenorrhea within 5 days of treatment,Concurrent-ABT group,~40%
same,"bleeding, frequency",[1],≤ 4%
same,"spotting, frequency",[1],≤ 10%
same,women in complete amenorrhea (no bleeding),"Concurrent-ABT group, last 4 weeks of treatment",~80%
same,"amenorrhea, frequency",[2],up to 98%
same,"bleeding, frequency",[2],less than 3%
same,"spotting, frequency",[2],1-5%
same,Uterine Bleeding Pattern,"Concurrent-ABT, Weeks 2-4",Spotting and bleeding generally decreased over time
same,Uterine Bleeding Pattern: Bleeding,"Concurrent-ABT, Weeks 2-4",Bleeding: ≤4%
same,Uterine Bleeding Pattern: Spotting,"Concurrent-ABT, Weeks 2-4",Spotting: ≤8%
same,Uterine Bleeding Pattern: Bleeding,"Concurrent-ABT, Weeks 7-10",Bleeding: ≤2%
same,Uterine Bleeding Pattern: Spotting,"Concurrent-ABT, Weeks 7-10",Spotting: 1-5%
same,Uterine Bleeding Pattern: amenorrhea,"Concurrent-ABT, Weeks 7-10",Amenorrhea: Up to 98%
same,"No Bleeding or Spotting, subjects (%), Plasma Estradiol Level 20-50 pg/mL","Days 1-14, Overall (A+B), N=32",(9.4%)
same,"No Bleeding or Spotting, subjects (%), Plasma Estradiol Level <20 pg/mL","Days 1-14, Overall (A+B), N=32",(15.6%)
same,"No Bleeding or Spotting, subjects (%), Plasma Estradiol Level >50 pg/mL","Days 1-14, Overall (A+B), N=32",(3.1%)
same,"No Bleeding or Spotting, subjects (n), Plasma Estradiol Level 20-50 pg/mL","Days 1-14, Overall (A+B), N=32",3
same,"No Bleeding or Spotting, subjects (n), Plasma Estradiol Level <20 pg/mL","Days 1-14, Overall (A+B), N=32",5
same,"No Bleeding or Spotting, subjects (n), Plasma Estradiol Level >50 pg/mL","Days 1-14, Overall (A+B), N=32",1
same,"No Bleeding, subjects (%), Plasma Estradiol Level 20-50 pg/mL","Days 1-14, Overall (A+B), N=32",(0.0%)
same,"No Bleeding, subjects (%), Plasma Estradiol Level <20 pg/mL","Days 1-14, Overall (A+B), N=32",(3.1%)
same,"No Bleeding, subjects (%), Plasma Estradiol Level >50 pg/mL","Days 1-14, Overall (A+B), N=32",(3.1%)
same,"No Bleeding, subjects (n), Plasma Estradiol Level 20-50 pg/mL","Days 1-14, Overall (A+B), N=32",0
same,"No Bleeding, subjects (n), Plasma Estradiol Level <20 pg/mL","Days 1-14, Overall (A+B), N=32",1
same,"No Bleeding, subjects (n), Plasma Estradiol Level >50 pg/mL","Days 1-14, Overall (A+B), N=32",1
same,"No Bleeding or Spotting, subjects (%), Plasma Estradiol Level 20-50 pg/mL",[3],(18.8%)
same,"No Bleeding or Spotting, subjects (%), Plasma Estradiol Level <20 pg/mL",[3],(0.0%)
same,"No Bleeding or Spotting, subjects (%), Plasma Estradiol Level >50 pg/mL",[3],(6.3%)
same,"No Bleeding or Spotting, subjects (n), Plasma Estradiol Level 20-50 pg/mL",[3],3
same,"No Bleeding or Spotting, subjects (n), Plasma Estradiol Level <20 pg/mL",[3],0
same,"No Bleeding or Spotting, subjects (n), Plasma Estradiol Level >50 pg/mL",[3],1
same,"No Bleeding, subjects (%), Plasma Estradiol Level 20-50 pg/mL",[3],(0.0%)
same,"No Bleeding, subjects (%), Plasma Estradiol Level <20 pg/mL",[3],(0.0%)
same,"No Bleeding, subjects (%), Plasma Estradiol Level >50 pg/mL",[3],(6.3%)
same,"No Bleeding, subjects (n), Plasma Estradiol Level 20-50 pg/mL",[3],0
same,"No Bleeding, subjects (n), Plasma Estradiol Level <20 pg/mL",[3],0
same,"No Bleeding, subjects (n), Plasma Estradiol Level >50 pg/mL",[3],1
same,"No Bleeding or Spotting, subjects (%), Plasma Estradiol Level 20-50 pg/mL",[4],(0.0%)
same,"No Bleeding or Spotting, subjects (%), Plasma Estradiol Level <20 pg/mL",[4],(31.3%)
same,"No Bleeding or Spotting, subjects (%), Plasma Estradiol Level >50 pg/mL",[4],(0.0%)
same,"No Bleeding or Spotting, subjects (n), Plasma Estradiol Level 20-50 pg/mL",[4],0
same,"No Bleeding or Spotting, subjects (n), Plasma Estradiol Level <20 pg/mL",[4],5
same,"No Bleeding or Spotting, subjects (n), Plasma Estradiol Level >50 pg/mL",[4],0
same,"No Bleeding, subjects (%), Plasma Estradiol Level 20-50 pg/mL",[4],(0.0%)
same,"No Bleeding, subjects (%), Plasma Estradiol Level <20 pg/mL",[4],(6.3%)
same,"No Bleeding, subjects (%), Plasma Estradiol Level >50 pg/mL",[4],(0.0%)
same,"No Bleeding, subjects (n), Plasma Estradiol Level 20-50 pg/mL",[4],0
same,"No Bleeding, subjects (n), Plasma Estradiol Level <20 pg/mL",[4],1
same,"No Bleeding, subjects (n), Plasma Estradiol Level >50 pg/mL",[4],0
same,"No Bleeding or Spotting, subjects (%), Plasma Estradiol Level 20-50 pg/mL",[5],(34.4%)
same,"No Bleeding or Spotting, subjects (%), Plasma Estradiol Level <20 pg/mL",[5],(53.1%)
same,"No Bleeding or Spotting, subjects (%), Plasma Estradiol Level >50 pg/mL",[5],(3.1%)
same,"No Bleeding or Spotting, subjects (n), Plasma Estradiol Level 20-50 pg/mL",[5],11
same,"No Bleeding or Spotting, subjects (n), Plasma Estradiol Level <20 pg/mL",[5],17
same,"No Bleeding or Spotting, subjects (n), Plasma Estradiol Level >50 pg/mL",[5],1
same,"No Bleeding, subjects (%), Plasma Estradiol Level 20-50 pg/mL",[5],(21.9%)
same,"No Bleeding, subjects (%), Plasma Estradiol Level <20 pg/mL",[5],(50.0%)
same,"No Bleeding, subjects (%), Plasma Estradiol Level >50 pg/mL",[5],(3.1%)
same,"No Bleeding, subjects (n), Plasma Estradiol Level 20-50 pg/mL",[5],7
same,"No Bleeding, subjects (n), Plasma Estradiol Level <20 pg/mL",[5],16
same,"No Bleeding, subjects (n), Plasma Estradiol Level >50 pg/mL",[5],1
same,"No Bleeding or Spotting, subjects (%), Plasma Estradiol Level 20-50 pg/mL",[6],(62.5%)
same,"No Bleeding or Spotting, subjects (%), Plasma Estradiol Level <20 pg/mL",[6],(12.5%)
same,"No Bleeding or Spotting, subjects (%), Plasma Estradiol Level >50 pg/mL",[6],(6.3%)
same,"No Bleeding or Spotting, subjects (n), Plasma Estradiol Level 20-50 pg/mL",[6],10
same,"No Bleeding or Spotting, subjects (n), Plasma Estradiol Level <20 pg/mL",[6],2
same,"No Bleeding or Spotting, subjects (n), Plasma Estradiol Level >50 pg/mL",[6],1
same,"No Bleeding, subjects (%), Plasma Estradiol Level 20-50 pg/mL",[6],(37.5%)
same,"No Bleeding, subjects (%), Plasma Estradiol Level <20 pg/mL",[6],(12.5%)
same,"No Bleeding, subjects (%), Plasma Estradiol Level >50 pg/mL",[6],(6.3%)
same,"No Bleeding, subjects (n), Plasma Estradiol Level 20-50 pg/mL",[6],6
same,"No Bleeding, subjects (n), Plasma Estradiol Level <20 pg/mL",[6],2
same,"No Bleeding, subjects (n), Plasma Estradiol Level >50 pg/mL",[6],1
same,"No Bleeding or Spotting, subjects (%), Plasma Estradiol Level 20-50 pg/mL",[7],(6.3%)
same,"No Bleeding or Spotting, subjects (%), Plasma Estradiol Level <20 pg/mL",[7],(93.8%)
same,"No Bleeding or Spotting, subjects (%), Plasma Estradiol Level >50 pg/mL",[7],(0.0%)
same,"No Bleeding or Spotting, subjects (n), Plasma Estradiol Level 20-50 pg/mL",[7],1
same,"No Bleeding or Spotting, subjects (n), Plasma Estradiol Level <20 pg/mL",[7],15
same,"No Bleeding or Spotting, subjects (n), Plasma Estradiol Level >50 pg/mL",[7],0
same,"No Bleeding, subjects (%), Plasma Estradiol Level 20-50 pg/mL",[7],(6.3%)
same,"No Bleeding, subjects (%), Plasma Estradiol Level <20 pg/mL",[7],(87.5%)
same,"No Bleeding, subjects (%), Plasma Estradiol Level >50 pg/mL",[7],(0.0%)
same,"No Bleeding, subjects (n), Plasma Estradiol Level 20-50 pg/mL",[7],1
same,"No Bleeding, subjects (n), Plasma Estradiol Level <20 pg/mL",[7],14
same,"No Bleeding, subjects (n), Plasma Estradiol Level >50 pg/mL",[7],0
same,"No Bleeding or Spotting, subjects (%), Plasma Estradiol Level 20-50 pg/mL",[8],(55.2%)
same,"No Bleeding or Spotting, subjects (%), Plasma Estradiol Level <20 pg/mL",[8],(13.8%)
same,"No Bleeding or Spotting, subjects (%), Plasma Estradiol Level >50 pg/mL",[8],(20.7%)
same,"No Bleeding or Spotting, subjects (n), Plasma Estradiol Level 20-50 pg/mL",[8],16
same,"No Bleeding or Spotting, subjects (n), Plasma Estradiol Level <20 pg/mL",[8],4
same,"No Bleeding or Spotting, subjects (n), Plasma Estradiol Level >50 pg/mL",[8],6
same,"No Bleeding, subjects (%), Plasma Estradiol Level 20-50 pg/mL",[8],(41.4%)
same,"No Bleeding, subjects (%), Plasma Estradiol Level <20 pg/mL",[8],(13.8%)
same,"No Bleeding, subjects (%), Plasma Estradiol Level >50 pg/mL",[8],(17.2%)
same,"No Bleeding, subjects (n), Plasma Estradiol Level 20-50 pg/mL",[8],12
same,"No Bleeding, subjects (n), Plasma Estradiol Level <20 pg/mL",[8],4
same,"No Bleeding, subjects (n), Plasma Estradiol Level >50 pg/mL",[8],5
same,"No Bleeding or Spotting, subjects (%), Plasma Estradiol Level 20-50 pg/mL",[9],(64.3%)
same,"No Bleeding or Spotting, subjects (%), Plasma Estradiol Level <20 pg/mL",[9],(7.1%)
same,"No Bleeding or Spotting, subjects (%), Plasma Estradiol Level >50 pg/mL",[9],(21.4%)
